Test systems include PC-3; BT-549; MCF7; SK-OV-3; MDA-MB-435; SN12C; HL-60; SW-620; SF-295; LOX IMVI; Malme-3M; KM12; OVCAR-5; MOLT-4; Hs-578T; A549; SK-MEL-28; IGROV-1; HCC 2998; U-251.
Common to all, as to assay: NCI anticancer screen, dose series, 48 h

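These data come from cells grown in 96-well plates and exposed to compound for 48 hours at five concentrations. At the GI50, growth is halved.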 The source made the active and inactive calls. Cut-off read from the data, not from the text of the source: active = GI50 up to about 1.1 µM and inactive = higher.

This is an account of results in ChEMBL document CHEMBL1201862, “PubChem BioAssay data set” (2004).

Turning to `COC(=O)c1ccc2c(c1)sc1nc(-c3ccc(OC)cc3)cn12`, the GI50 is > 100 µM (inactive) with PC-3; 43.7 µM (inactive) in the test with BT-549; 66.2 µM (inactive) in the test on MCF7; > 100 µM (inactive) in the test on SK-OV-3; 42.8 µM (inactive) in the test with MDA-MB-435; > 100 µM (inactive) in the test on SN12C. Also, the GI50 is 25.1 µM (inactive) in the test with HL-60; > 100 µM (inactive) in the test on SW-620; > 100 µM (inactive) in the test with SF-295; > 100 µM (inactive) in the test with LOX IMVI; > 100 µM (inactive) in the test with Malme-3M; 56.1 µM (inactive) with KM12. Besides, the GI50 in the test with OVCAR-5 is > 100 µM (inactive); in the test with MOLT-4, > 100 µM (inactive); in the test on Hs-578T it was 37.3 µM (inactive); in the test with A549, > 100 µM (inactive); in the test with SK-MEL-28, > 100 µM (inactive); in the test with IGROV-1 it was 48.2 µM (inactive). In addition, the GI50 was > 100 µM (inactive) with HCC 2998 and 31.7 µM (inactive) in the test with U-251.

Take `CN(C1=NCCO1)c1cccc2c1CCCC2`: the GI50 with PC-3 was 2.25 µM (inactive); in the test with BT-549, 9.53 µM (inactive); in the test on MCF7, 4.51 µM (inactive); in the test on SK-OV-3 it was 4.71 µM (inactive); in the test on MDA-MB-435, 3.64 µM (inactive); in the test on SN12C it was 3.08 µM (inactive). In addition, the GI50 in the test on HL-60 was 4.41 µM (inactive); in the test with SW-620 it was > 10 µM (inactive); with SF-295 it was 4.35 µM (inactive); in the test on LOX IMVI it was 2.58 µM (inactive); with Malme-3M, 2.76 µM (inactive); with KM12, 6.97 µM (inactive). Moreover, the GI50 is 3.9 µM (inactive) in the test on OVCAR-5; 1.77 µM (inactive) in the test with MOLT-4; 8.15 µM (inactive) with Hs-578T; 4.26 µM (inactive) with A549; 6.01 µM (inactive) in the test on SK-MEL-28; 2.75 µM (inactive) in the test on IGROV-1. Further, the GI50 was 3.79 µM (inactive) in the test on HCC 2998 and 3.57 µM (inactive) in the test on U-251.

With `COc1cccc(CCNc2c(C#N)c3nc4ccccc4n3c3ccccc23)c1`, the GI50 is 1.11 µM (active) with PC-3; 0.618 µM (active) in the test with BT-549; 0.0775 µM (active) with MCF7; 1.18 µM (inactive) with SK-OV-3; 0.118 µM (active) in the test with MDA-MB-435; 3.19 µM (inactive) in the test on SN12C. In addition, the GI50 in the test with HL-60 was 0.34 µM (active); in the test on SW-620, 0.51 µM (active); in the test with SF-295 it was 0.364 µM (active); in the test on LOX IMVI it was 0.63 µM (active); in the test with Malme-3M, 0.239 µM (active); with KM12, 0.258 µM (active). For the same compound, the GI50 in the test on OVCAR-5 is 7 µM (inactive); in the test with MOLT-4 it was 0.769 µM (active); in the test on Hs-578T, 0.498 µM (active); in the test with A549 it was 1.33 µM (inactive); in the test on SK-MEL-28, 1.22 µM (inactive); with IGROV-1, 0.433 µM (active). In addition, the GI50 is 0.643 µM (active) in the test with HCC 2998 and 0.721 µM (active) with U-251.

On to `N=C(N)NS(=O)(=O)c1ccc(NNC(=O)c2cccc3c(O)c4ccccc4nc23)cc1`, for which the GI50 in the test with PC-3 is 28.4 µM (inactive); with BT-549, 21.7 µM (inactive); in the test with MCF7, 16.3 µM (inactive); with SK-OV-3 it was 29.6 µM (inactive); in the test on MDA-MB-435 it was 25.5 µM (inactive); in the test on SN12C, 33.8 µM (inactive). The GI50 in the test on HL-60 is 27 µM (inactive); with SW-620, 32.7 µM (inactive); with SF-295, 35.7 µM (inactive); in the test on LOX IMVI, 24.5 µM (inactive); with Malme-3M, 19.6 µM (inactive); in the test on KM12, 21.8 µM (inactive). The GI50 in the test on OVCAR-5 was 42.6 µM (inactive); in the test with MOLT-4, 30.2 µM (inactive); with Hs-578T, 63.2 µM (inactive); in the test with A549 it was 38.7 µM (inactive); in the test with SK-MEL-28, 26.2 µM (inactive); with IGROV-1, 24.9 µM (inactive). The GI50 in the test with HCC 2998 was 18.1 µM (inactive); with U-251, 32.8 µM (inactive).

`COC(=O)[C@@H]1C[C@H]2OC(=O)CC[C@]2(C)O[C@H]1[C@H]1O[C@@](C)(O)CCC[C@H]1C`: the GI50 in the test on PC-3, in the test with BT-549, in the test with MCF7, in the test with SK-OV-3, in the test with MDA-MB-435 and in the test on SN12C was > 50 µM (inactive) each time. For the same compound, the GI50 was 8.95 µM (inactive) with HL-60; > 50 µM (inactive) with SW-620; > 50 µM (inactive) in the test on SF-295; 6.07 µM (inactive) with LOX IMVI; > 50 µM (inactive) in the test with Malme-3M; > 50 µM (inactive) in the test on KM12. The GI50 with OVCAR-5, in the test with MOLT-4, in the test on Hs-578T, in the test on A549, in the test on SK-MEL-28 and in the test with IGROV-1 was > 50 µM (inactive) in each case. The GI50 in the test on HCC 2998 and in the test on U-251 was > 50 µM (inactive) throughout.

Regarding `COc1ccc(Oc2nc3cc(C(F)(F)F)ccc3nc2C(C)C)cc1`, the GI50 is 41.6 µM (inactive) in the test on PC-3; 22.4 µM (inactive) with BT-549; 18.8 µM (inactive) in the test with MCF7; 38.7 µM (inactive) in the test on SK-OV-3; 30.1 µM (inactive) with MDA-MB-435; 24.5 µM (inactive) with SN12C. Moreover, the GI50 in the test on HL-60 is 18.7 µM (inactive); in the test with SW-620, 30.8 µM (inactive); in the test on SF-295 it was 21.2 µM (inactive); in the test with LOX IMVI, 15.3 µM (inactive); in the test on Malme-3M, 24.7 µM (inactive); in the test on KM12, 31.6 µM (inactive). The GI50 in the test with OVCAR-5 is 24.9 µM (inactive); with MOLT-4 it was 15.7 µM (inactive); in the test on Hs-578T it was 31.6 µM (inactive); in the test with A549, 31.1 µM (inactive); in the test with SK-MEL-28, 48 µM (inactive); in the test on IGROV-1 it was 23.3 µM (inactive). In addition, the figures for the GI50 with HCC 2998 and in the test with U-251 were 20.1 µM (inactive) and 23.1 µM (inactive), respectively.

Consider `CCOC(=O)c1sc2nc(SC)nc3c2c1NCN3c1ccc(F)c(F)c1`, for which the GI50 with PC-3 is 16.4 µM (inactive); with BT-549 it was 6.79 µM (inactive); with MCF7 it was 36 µM (inactive); with SK-OV-3 it was 19.2 µM (inactive); in the test with MDA-MB-435, 6.81 µM (inactive); in the test with SN12C it was 30.5 µM (inactive). The GI50 in the test on HL-60 is > 100 µM (inactive); in the test on SW-620, 10 µM (inactive); with SF-295, 24.2 µM (inactive); in the test with LOX IMVI it was 6.59 µM (inactive); in the test with Malme-3M, 7.59 µM (inactive); with KM12, 10.7 µM (inactive). Further, the GI50 in the test with OVCAR-5 is > 100 µM (inactive); with MOLT-4, > 55.2 µM (inactive); in the test on Hs-578T, 4.28 µM (inactive); with A549 it was 8.04 µM (inactive); with SK-MEL-28 it was 23.7 µM (inactive); in the test on IGROV-1, 43.1 µM (inactive). Besides, the GI50 with HCC 2998 is > 36.1 µM (inactive); in the test with U-251, 9.27 µM (inactive).

`O=C1C(NCCO)=C(N2CC2)C(=O)C(NCCO)=C1N1CC1`: the GI50 in the test with PC-3 was > 100 µM (inactive); with BT-549, > 69 µM (inactive); in the test on MCF7 it was > 100 µM (inactive); in the test on SK-OV-3, > 70.6 µM (inactive); with MDA-MB-435 it was > 100 µM (inactive); with SN12C it was 26.5 µM (inactive). The GI50 is 13.2 µM (inactive) with HL-60; 46.8 µM (inactive) with SW-620; 26.5 µM (inactive) with SF-295; 17.1 µM (inactive) with LOX IMVI; > 100 µM (inactive) with Malme-3M; 74.5 µM (inactive) in the test with KM12. In addition, the GI50 with OVCAR-5 was 58.2 µM (inactive); with MOLT-4, 12.2 µM (inactive); in the test with Hs-578T, > 100 µM (inactive); in the test with A549, 44.5 µM (inactive); in the test with SK-MEL-28, > 100 µM (inactive); with IGROV-1, > 97.5 µM (inactive). The GI50 in the test on HCC 2998 was > 100 µM (inactive); in the test on U-251 it was 31.5 µM (inactive).

On to `COC(=O)C1OC(O[C@H]2CC[C@]3(C)[C@H]4CC=C5[C@@H]6CC(C)(C)CC[C@]6(C(=O)OC6OCC(O)C(O)C6OC6OC(C)C(OC7OCC(OC8OCC(O)C(O)C8O)C(O)C7O)C(O)C6O)[C@H](O)C[C@@]5(C)[C@]4(C)CC[C@H]3C2(C)C)C(O)C(O)C1O` (stereo not given in full), for which the GI50 in the test with PC-3 was 4.19 µM (inactive); with BT-549 it was 2.04 µM (inactive); in the test with MCF7 it was 0.69 µM (active); in the test with SK-OV-3 it was 14.9 µM (inactive); in the test on MDA-MB-435, 1.95 µM (inactive); with SN12C, 1.8 µM (inactive). Besides, the GI50 in the test with HL-60 is 3.21 µM (inactive); with SW-620, 5.14 µM (inactive); with SF-295, 3.05 µM (inactive); with LOX IMVI, 8.53 µM (inactive); in the test with Malme-3M it was 4.16 µM (inactive); with KM12, 3.72 µM (inactive). Further, the GI50 is 2.77 µM (inactive) in the test with OVCAR-5; 15.7 µM (inactive) with MOLT-4; 6.15 µM (inactive) in the test on Hs-578T; 2.93 µM (inactive) with A549; 2.08 µM (inactive) in the test with SK-MEL-28; 4.57 µM (inactive) in the test with IGROV-1. Also, the GI50 is 1.63 µM (inactive) with HCC 2998 and 5.83 µM (inactive) with U-251.

Take `CCCCCCCCCCCCCC/C(C(=O)O)=C(\C)C(=O)O`: the GI50 with PC-3 is 38.2 µM (inactive); in the test on BT-549, > 100 µM (inactive); in the test on MCF7, > 100 µM (inactive); in the test on SK-OV-3, > 100 µM (inactive); with MDA-MB-435, > 100 µM (inactive); with SN12C it was > 100 µM (inactive). Besides, the GI50 in the test with HL-60 was 58.3 µM (inactive); with SW-620 it was > 100 µM (inactive); with SF-295, > 100 µM (inactive); with LOX IMVI, > 100 µM (inactive); in the test on Malme-3M, > 100 µM (inactive); with KM12, > 100 µM (inactive). Further, the GI50 in the test on OVCAR-5, in the test with MOLT-4, with Hs-578T, in the test on A549, with SK-MEL-28 and in the test on IGROV-1 was > 100 µM (inactive) each time. Further, the GI50 in the test on HCC 2998 and in the test on U-251 was > 100 µM (inactive) each time.
